# “Also recorded” adds a separate entry of the source.
# Experiments:
# [1] = tested on: LNCaP prostate cancer cells; assay: Flow cytometric screen for sensitization to TRAIL-induced apoptosis (nuclear fragmentation by propidium iodide, mitochondrial depolarization by TMRM); type: cell-based; details: for capacity to sensitize LNCaP prostate cancer cells to TRAIL-induced apoptosis: androgen-deprived, 40 μM lignan 1 hour before 10 ng/ml izTRAIL, 20 hours
# Method: (§1) Flow cytometric analysis of apoptosis with HTS platform was performed on cells that were plated on a 96-well plate as triplicate samples. After 24 hours in androgen-deprived conditions, the cells were pretreated with 40 μM lignans or lignan derivatives for 1 hour prior to addition of 10 ng/ml izTRAIL. Twenty hours later the plate was centrifuged with a culture plate rotor (1000 rpm, 3 minutes). For analysis of nuclear fragmentation, propidium iodide (PI) buffer (40 mM Na-citrate, 0.3% Triton X-100, 50 μg/ml PI; Sigma) was added to the wells. After 10 minutes incubation at room temperature, the plate was analyzed with LSRII flow cytometer equipped with HTS platform (PE-A channel). The fraction of sub-G0/G1 events (nuclear fragmentation) was gated as a measure of apoptotic cell death. For detection of mitochondrial depolarization, the cells were detached by trypsinization of the cells and incubated in 20 nM tetramethylrhodamine (TMRM; Invitrogen) in warm culture medium for 10 minutes before analysis. The plate was analyzed with LSRII flow cytometer equipped with HTS platform (FSC, PE-A channel). The cells with decreased TMRM incorporation were considered to have undergone mitochondrial membrane depolarization. Activated caspase-3 in cells was labeled with phycerythrin (PE)-conjugated antibody according to manufacturer's protocol (BD Pharmingen) and analyzed by FacsCalibur flow cytometer (FL-2, FSC).
# LNCaP cells were cultured in the absence of 1 nM androgen and incubated with lignan compounds (40 μM) for 1 hour before izTRAIL treatment (10 ng/ml) or control for 20 hours. The samples were screened for nuclear fragmentation by propidium iodide labeling (FIG. 1A) or mitochondrial depolarization by TMRM labeling (FIG. 1B). The plates were analyzed with LSRII flow cytometer equipped with HTS platform (FSC, PE-A channels). The fraction of sub-G0/G1 events (nuclear fragmentation; PE-A channel) was gated as a measure of apoptotic cell death (FIG. 1A) and the cells with decreased TMRM incorporation (PE-A channel) were considered to have undergone mitochondrial membrane depolarization (FIG. 1B). Representative histograms and dot blots for control, TRAIL, nortrachelogenin (NTG) and NTG+TRAIL treatments are viewed.
# Importantly, substitution with methyl group at position 8 further increases activity of dibenzylbutyrolactone lignans in sensitization of LNCaP prostate cancer cells to TRAIL-mediated apoptosis (FIG. 8). LNCaP cells were cultured in the absence of 1 nM androgen and incubated with indicated lignan compounds (40 μM) for 1 hour before izTRAIL treatment (10 ng/ml) or control for 20 hours. The cells were disrupted and the nuclei labeled for DNA content with propidium iodide. The samples were analyzed by flow cytometry and the fraction of sub-G0/G1 events (nuclear fragmentation) was detected as a measure of apoptotic cell death (mean±SEM; n=4). (FIG. 8A). Alternatively, LNCaP cells (+/−1 nM androgen) were incubated with 0-100 μM 8-Me-MAT for 1 hour after which total cell lysates were prepared and the samples were analyzed by Western blotting for Akt and phospho-Akt(ser473) expression.
# phospho-Akt(ser473) [2] = assay: Western blot of Akt / phospho-Akt(ser473); type: cell-based; details: LNCaP +/- 1 nM androgen; 0-100 μM lignan, 1 hour (NTG also 100 μM, 0-8 hours)
# Method: Whole cell lysates were prepared by lysing floating and attached cells in Laemmli sample buffer and boiling the samples for 10 minutes. Proteins were separated by SDS-PAGE and transferred on PVDF membrane (Millipore). Western blotting was performed using antibodies against Akt, phospho-Akt (Ser473), GSK-3β, phospho-GSK-3β (Ser9) and phospho-EGF receptor Tyr(1068) (Cell Signalling Technology), Actin (clone AC-40; Sigma-Aldrich), PI3K p85α (clone 4/PI3-Kinase; BD Pharmingen), EGF receptor, Insulin receptor β and IGF-I receptor β (Santa Cruz Biotechnology), and Phospho-tyrosine (clone 4G10; Millipore). HRP-conjugated secondary antibodies were from Southern Biotechnology Associates, Promega, and Amersham Biosciences. The results were visualized using the ECL method (Amersham Biosciences) on x-ray film. The presented Western blot results are representative of at least three independent experiments. Densitometric analysis of Western blots was done using scanned films with the MCID M5+ software. The values were normalized to the untreated control sample, which was given the value 1. The histograms in FIG. 4 present a relative decrease in ratio of phosphorylated vs. non-phosphorylated protein compared to control cells.
# LNCaP cells (+/−1 nM androgen) were treated with 0-100 μM enterolactone (ENL), matairesinol (MAT) or NTG for 1 hour prior to preparation of total cell lysates (FIG. 4A). The relative decrease in pAkt/Akt ratio was quantified from western blot analysis with Akt (60 kDa) and phospho-Akt(ser473) (Mean±SEM; n=4; Student's t-test *p<0.05, **p<0.01). Alternatively, androgen-deprived LNCaP cells were incubated with 100 μM NTG for 2 hours, fixed and labeled with Akt antibody followed by Alexa 546-conjugated secondary antibody. The samples were viewed at LSM 510 confocal microscope (63× oil objective, 543 nm excitation) (FIG. 4B). To examine the time-dependence of the observed inhibitory effect, LNCaP cells (+/−1 nM androgen) were incubated with 100 μM NTG for 0-8 hours after which total cell lysates were prepared. The western blot analysis with Akt, phospho-Akt(ser473), GSK-3β and phospho-GSK-3β(ser9) was quantified. The histogram presents a relative decrease in pAkt/Akt ratio (FIG. 4C.) or pGSK-3β/GSK-3β ratio (FIG. 4D.) compared to control cells (Mean±SEM; n=3). […]
# Importantly, substitution with methyl group at position 8 further increases activity of dibenzylbutyrolactone lignans in sensitization of LNCaP prostate cancer cells to TRAIL-mediated apoptosis (FIG. 8). […] The samples were analyzed by flow cytometry and the fraction of sub-G0/G1 events (nuclear fragmentation) was detected as a measure of apoptotic cell death (mean±SEM; n=4). […]
# phospho-Akt(ser473) [3] = details: reported earlier; cited from earlier work
# [4] = in vivo; cited from earlier work
# LNCaP cells [5] = assay: Caspase-3 activation by flow cytometry, TRAIL with or without NTG; type: cell-based; details: TRAIL alone, 20 h
# Method: as §1
# As NTG was identified as the most efficient TRAIL-sensitizing lignan, we analyzed the ability of NTG to affect the efficacy of different TRAIL concentrations in triggering of caspase-3 activation (FIG. 2A). The TRAIL resistant LNCaP cells were cultured in androgen-supplied and androgen-deprived conditions to simulate the effects of androgen-deprivation therapy, and treated for 20 h with TRAIL alone or with the combination of 40 μM NTG and TRAIL. The percentage of cells with activated caspase-3 increased from maximum of 15% to 60% for androgen-deprived, and from 13% to 30% for androgen-supplied cells (Mean±SEM; n≧3) (FIG. 2A).
# LNCaP cells [6] = assay: Clonogenic assay; type: cell-based; details: 11 days; 10 ng/ml TRAIL or 40 μM NTG alone
# Method: Five hundred LNCaP cells were plated in 1 ml of culture medium and let to adhere prior to addition of the indicated treatments. After 11 days of incubation, cell colonies were fixed with glutaraldehyde (6.0% v/v), stained with crystal violet (0.5% w/v) and imaged using a digital camera.
# To investigate the effects of NTG alone and in combination with TRAIL on colony formation ability, the LNCaP cells were plated in low confluency and treated for 11 days.
compound,measurement,setting,value
"COc1cc(CC2COC(=O)C2(C)Cc2ccc(O)c(OC)c2)ccc1O (stereo not shown) [8-Me-MAT, 8-Methylmatairesinol]",capacity to sensitize LNCaP prostate cancer cells to TRAIL-induced apoptosis,[1],increased capacity to sensitize LNCaP prostate cancer cells to TRAIL-mediated apoptosis
same,Akt phosphorylation (pAkt/Akt ratio),phospho-Akt(ser473) [2],strongly inhibitory effect on Akt phosphorylation; also recorded: inhibit Akt phosphorylation yet more efficiently than ENL or MAT
"COc1cc(C[C@H]2COC(=O)[C@@H]2Cc2ccc(O)c(OC)c2)ccc1O [MAT, Matairesinol, reference compound]",Akt phosphorylation in prostate cancer cells,phospho-Akt(ser473) [3],can reportedly inhibit Akt phosphorylation
same,conversion into the mammalian lignans,[4],converted to ENL in the digestive tract
same,increase of the apoptotic response compared to TRAIL alone (factor),[1]; lignan in combination with TRAIL,2.5
"O=C1OC[C@H](Cc2cccc(O)c2)[C@H]1Cc1cccc(O)c1 [ENL, Enterolactone]",Akt phosphorylation in prostate cancer cells,phospho-Akt(ser473) [3],can reportedly inhibit Akt phosphorylation
"COc1ccc(CC2COC(=O)C2(C)Cc2ccc(OC)c(OC)c2)cc1OC (stereo not shown) [8-Me-dimethylmatairesinol, 8-Methyldimethylmatairesinol]",capacity to sensitize LNCaP prostate cancer cells to TRAIL-induced apoptosis,[1],clearly enhances the activity
TRAIL,percentage of cells with activated caspase-3 (maximum),LNCaP cells [5]; androgen-deprived LNCaP,15%
same,percentage of cells with activated caspase-3 (maximum),LNCaP cells [5]; androgen-supplied LNCaP,13%
same,"colony formation ability, single agent",LNCaP cells [6],not able to inhibit LNCaP growth

# Reference: patent US9168243B2, “Pharmaceutical compositions comprising 8-substituted dibenzylbutyrolactone lignans” (priority 2010, dated 2015)
